PubChem BioAssay AID256 (DTP/NCI, 2004)
Values joined by “and” are separate entries in the source; they are usually repeats but may differ in a detail not shown here. Identical values can stand only once. Inconclusive results and toxic doses are left out. How the source made its calls: active means survival T/C of 150% or more; inactive means T/C below 125% in these data.

System: CD2F1 mice, L1210 leukemia ip, survival T/C
Experiment: NCI In Vivo Anticancer Drug Screen. Data for tumor model L1210 Leukemia (intraperitoneal) in CD2F1 (CDF1) mice
Conditions: higher = longer survival
Procedure, shortened: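 Each value reflects a quotient of treated over vehicle control outcomes in mice with a transplanted tumor.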

[1] = endpoint: mean survival time, dose: 100.0 mg/kg/injection, schedule: Q04DX003 (ip), vehicle: saline with Tween-80
[2] = endpoint: mean survival time, dose: 200.0 mg/kg/injection, schedule: Q04DX003 (ip), vehicle: saline with Tween-80
[3] = endpoint: mean survival time, dose: 100.0 mg/kg/injection, schedule: Q01DX009 (ip), vehicle: saline with Tween-80
[4] = endpoint: mean survival time, dose: 400.0 mg/kg/injection, schedule: Q04DX003 (ip), vehicle: saline with Tween-80

Measured: T/C

Cc1c2ccccc2c(CN(C)CC(=O)O)c2ccccc12
inactive: [1] 102 % of control | [2] 102 % of control

O=C(c1ccccc1)C(O)(CC(c1ccccc1)[P+](c1ccccc1)(c1ccccc1)c1ccccc1)c1ccccc1 (centres undefined)
inactive: endpoint: mean survival time, dose: 6.25 mg/kg/injection, schedule: Q01DX001 (ip), vehicle: saline with Tween-80 103 % of control | endpoint: mean survival time, dose: 12.5 mg/kg/injection, schedule: Q01DX001 (ip), vehicle: saline with Tween-80 96 % of control | endpoint: mean survival time, dose: 25.0 mg/kg/injection, schedule: Q01DX001 (ip), vehicle: saline with Tween-80 100 % of control

O=C(O)C(CNC(=O)C(F)(F)F)Cc1ccc([N+](=O)[O-])cc1 (centres undefined)
inactive: endpoint: mean survival time, dose: 12.5 mg/kg/injection, schedule: Q01DX009 (ip), vehicle: saline 98 % of control and 101 % of control | endpoint: mean survival time, dose: 25.0 mg/kg/injection, schedule: Q01DX009 (ip), vehicle: saline 98 % of control | endpoint: mean survival time, dose: 50.0 mg/kg/injection, schedule: Q01DX009 (ip), vehicle: saline 97 % of control and 107 % of control | endpoint: mean survival time, dose: 100.0 mg/kg/injection, schedule: Q01DX009 (ip), vehicle: saline 103 % of control

OCc1ccc2c(n1)COC(c1ccccc1)O2 (centres undefined)
inactive: endpoint: mean survival time, dose: 100.0 mg/kg/injection, schedule: Q04DX002 (ip), vehicle: Klucel (hydroxypropylcellulose) (HPC) 102 % of control | endpoint: mean survival time, dose: 200.0 mg/kg/injection, schedule: Q04DX002 (ip), vehicle: Klucel (hydroxypropylcellulose) (HPC) 94 % of control | endpoint: mean survival time, dose: 400.0 mg/kg/injection, schedule: Q04DX002 (ip), vehicle: Klucel (hydroxypropylcellulose) (HPC) 94 % of control

Cc1cc[n+]([O-])c(N(C(=O)c2ccccc2)C(=O)c2ccccc2)c1
inactive: [3] 98 % of control | [1] 95 % of control | endpoint: mean survival time, dose: 200.0 mg/kg/injection, schedule: Q01DX009 (ip), vehicle: saline with Tween-80 102 % of control | [2] 103 % of control | endpoint: mean survival time, dose: 400.0 mg/kg/injection, schedule: Q01DX009 (ip), vehicle: saline with Tween-80 107 % of control | [4] 97 % of control

Nc1nc2c(nc(NCc3ccccc3)n2C2OC(CO)C(O)C2O)c(=O)[nH]1 (centres undefined)
inactive: endpoint: mean survival time, dose: 6.25 mg/kg/injection, schedule: Q01DX005 (ip), vehicle: distilled water + Tween-80 97 % of control | endpoint: mean survival time, dose: 12.5 mg/kg/injection, schedule: Q01DX005 (ip), vehicle: distilled water + Tween-80 95 % of control | endpoint: mean survival time, dose: 25.0 mg/kg/injection, schedule: Q01DX005 (ip), vehicle: distilled water + Tween-80 95 % of control | endpoint: mean survival time, dose: 50.0 mg/kg/injection, schedule: Q01DX005 (ip), vehicle: distilled water + Tween-80 90 % of control | endpoint: mean survival time, dose: 100.0 mg/kg/injection, schedule: Q01DX005 (ip), vehicle: distilled water + Tween-80 90 % of control

O=C(O)C(O)(C1CCCCC1)C1CCC2CCC3CCCC1C32 (centres undefined)
inactive: [1] 105 % of control | [2] 87 % of control | [4] 105 % of control

CC1(C[N+](C)(C)C)COC(C)(C)O1 (centres undefined)
inactive: endpoint: mean survival time, dose: 12.5 mg/kg/injection, schedule: Q04DX002 (ip), vehicle: saline 95 % of control | endpoint: mean survival time, dose: 25.0 mg/kg/injection, schedule: Q01DX001 (ip), vehicle: saline 98 % of control | endpoint: mean survival time, dose: 25.0 mg/kg/injection, schedule: Q04DX002 (ip), vehicle: saline 95 % of control | endpoint: mean survival time, dose: 50.0 mg/kg/injection, schedule: Q01DX001 (ip), vehicle: saline 96 % of control | endpoint: mean survival time, dose: 50.0 mg/kg/injection, schedule: Q04DX002 (ip), vehicle: saline 106 % of control | endpoint: mean survival time, dose: 100.0 mg/kg/injection, schedule: Q01DX001 (ip), vehicle: saline with Tween-80 94 % of control | endpoint: mean survival time, dose: 100.0 mg/kg/injection, schedule: Q01DX001 (ip), vehicle: saline 103 % of control | endpoint: mean survival time, dose: 100.0 mg/kg/injection, schedule: Q04DX002 (ip), vehicle: saline 95 % of control

O=C1C(Cl)=CC(=NS(=O)(=O)c2ccccc2)C=C1Cl
inactive: endpoint: mean survival time, dose: 6.25 mg/kg/injection, schedule: Q04DX003 (ip), vehicle: saline with Tween-80 100 % of control | endpoint: mean survival time, dose: 12.5 mg/kg/injection, schedule: Q04DX003 (ip), vehicle: saline with Tween-80 94 % of control | endpoint: mean survival time, dose: 25.0 mg/kg/injection, schedule: Q04DX003 (ip), vehicle: saline with Tween-80 103 % of control

CCC(=O)c1cc(OC)cc(OC)c1
inactive: endpoint: mean survival time, dose: 100.0 mg/kg/injection, schedule: Q04DX003 (ip), vehicle: saline 100 % of control | endpoint: mean survival time, dose: 200.0 mg/kg/injection, schedule: Q04DX003 (ip), vehicle: saline 101 % of control | endpoint: mean survival time, dose: 400.0 mg/kg/injection, schedule: Q04DX003 (ip), vehicle: saline 103 % of control

OC(CC1=NNC(=S)NC1)(C(F)(F)F)C(F)(F)F
inactive: endpoint: mean survival time, dose: 50.0 mg/kg/injection, schedule: Q01DX009 (ip), vehicle: saline with Tween-80 94 % of control | [3] 89 % of control

O=c1cc(C(Cl)C2OC(CO)C(O)C2O)nc[nH]1 (centres undefined)
inactive: endpoint: median survival time, dose: 18.13 mg/kg/injection, schedule: Q01DX005 (ip), vehicle: saline 100 % of control | endpoint: median survival time, dose: 36.25 mg/kg/injection, schedule: Q01DX005 (ip), vehicle: saline 98 % of control | endpoint: median survival time, dose: 72.5 mg/kg/injection, schedule: Q01DX005 (ip), vehicle: saline 101 % of control | endpoint: median survival time, dose: 145.0 mg/kg/injection, schedule: Q01DX005 (ip), vehicle: saline 103 % of control

O=C(O)CCC(C(=O)O)c1ccccc1 (centres undefined)
inactive: endpoint: mean survival time, dose: 75.0 mg/kg/injection, schedule: Q01DX001 (ip), vehicle: saline 98 % of control | endpoint: mean survival time, dose: 150.0 mg/kg/injection, schedule: Q01DX001 (ip), vehicle: saline 101 % of control | endpoint: mean survival time, dose: 300.0 mg/kg/injection, schedule: Q01DX001 (ip), vehicle: saline 104 % of control
